Measured values published in patent US4762820A, “Therapeutic treatment for congestive heart failure” (Trustees of Boston University, priority 1986, dated 1988).
Several values for one entry are separate records, joined by “and”; a condition that tells them apart may be missing. Identical values can stand only once.

Assays:
[1] = tested on: arginine vasopressin; assay: Change in mean arterial pressure after AVP injection in rats, before and after nasal administration of the selective antagonist; format: in vivo, Wistar rats
Protocol: On the day before experimental testing, each rat was placed under ether anesthesia, and the right iliac artery and the right external jugular vein were catherized with PE-50 tubing. On the day following surgery, with the animal remaining unrestrained, the mean arterial pressure was monitored via a Hewlett-Packard 1280C transducer and a 7702B Recorder.
A vasopressin injection was prepared by diluting commercially obtained Pitressin at 20 U/ml concentration with 5% dextrose in water (hereinafter "D5W") to yield a sterile 20 mU/ml final concentration. […] All intravenous injections of vasopressin were flushed through using an additional volume comprising 0.2-0.3 ml of D5W.
Each experimental animal was tested in two stages: initially, two 0.1 ml injections each containing 2.0 millipressor units of arginine vasopressin were given through the venous catheter over a ten minute period and the individual changes in mean arterial pressure recorded. This stage identified each of the test animals as being susceptible to the physiological effects of vasopressin. The second stage of the experiment comprised release of 0.1 ml containing 250 ug of the selective antagonist onto the nasal mucosae of the rat via a PE-50 catheter which had been inserted into one of the nostrils to a depth of about four millimeters. This administration of the antagonist as a nasal spray onto the mucosae of the nose was followed by repeated injection of 0.1 ml volumes, each containing 2.0 millipressor units of arginine vasopressin, at 10, 20, 30, 60, and 120 minutes after the administration of the selective antagonist. The change in mean arterial pressure was recorded at each of these intervals after each injection of the vasopressin.

[2] = tested on: arginine vasopressin; conditions: 0.5 mg i.v.; exogenous AVP 20 mU/kg; cited from earlier work

| Molecule | mean change in arterial pressure ([1]; 2.0 millipressor units AVP i.v., mean of the three test animals) | Changes in Mean Arterial Pressure After AVP Injection Alone ([1]; individual rats, 2.0 millipressor units AVP i.v., no antagonist) | effect of repeated 2.0 mU vasopressin injection after nasal spraying ([1]; 250 ug nasal, for at least the two hours of the test) | Changes in Mean Arterial Pressure After Antagonist Adm. + AVP Injections, 10' ([1]; individual rats, 250 ug antagonist onto nasal mucosae, 2.0 mU AVP i.v. 10 min later) | Changes in Mean Arterial Pressure After Antagonist Adm. + AVP Injections, 20' ([1]; individual rats, 250 ug antagonist onto nasal mucosae, 2.0 mU AVP i.v. 20 min later) | Changes in Mean Arterial Pressure After Antagonist Adm. + AVP Injections, 30' ([1]; individual rats, 250 ug antagonist onto nasal mucosae, 2.0 mU AVP i.v. 30 min later) | Changes in Mean Arterial Pressure After Antagonist Adm. + AVP Injections, 60' ([1]; individual rats, 250 ug antagonist onto nasal mucosae, 2.0 mU AVP i.v. 60 min later) | Changes in Mean Arterial Pressure After Antagonist Adm. + AVP Injections, 120' ([1]; individual rats, 250 ug antagonist onto nasal mucosae, 2.0 mU AVP i.v. 120 min later) | inhibition of the blood pressure response to exogenous arginine vasopressin [2] [%] |
| --- | --- | --- | --- | --- | --- | --- | --- | --- | --- |
| NC(=O)CC[C@@H]1NC(=O)[C@H](Cc2ccccc2)NC(=O)[C@H](Cc2ccc(O)cc2)NC(=O)[C@@H](N)CSSC[C@@H](C(=O)N2CCC[C@H]2C(=O)N[C@@H](CCCN=C(N)N)C(=O)NCC(N)=O)NC(=O)[C@H](CC(N)=O)NC1=O [AVP, arginine vasopressin, reference compound] | about 35 mmHg | +37.5 mm Hg and +38.5 mm Hg and +29.0 mm Hg |  |  |  |  |  |  |  |
| [1-(β-mercapto-β,β-cyclopentamethylenepropionic acid), 2-(O-methyl)tyrosine]arginine vasopressin [AVP Antagonist] |  |  | no significant effect | 0 mm Hg and +5 mm Hg | 0 mm Hg and +5 mm Hg | 0 mm Hg and +5 mm Hg | 0 mm Hg and +5 mm Hg | 0 mm Hg and +5 mm Hg | 80 |
